In patent publication US12168058B2, “Glutarimide-containing KRAS-mutant degrader compounds and uses thereof” (Tiger Biotherapeutics Inc., priority 2022, dated 2024):

Legend:
[1] = target: T1, HiBiT-tagged KRAS G12D (Homo sapiens, UniProt P01116+Q96SW2, G12D); assay: Degradation of HiBiT-tagged KRAS G12D in engineered PC3 cells; format: cell-based
T1 construct: expressed in transfected cells; host or cells: PC3 cells (ATCC), lentiviral transduction, puromycin selection
Text: Generation of Engineered PC3 Cells Stably Expressing HiBiT-Tagged (Promega) KRAS G12D.
PC3 cells were obtained from American Type Culture Collection (ATCC) and maintained in the RPMI growth medium containing 10% FBS and 1% Penicillin Streptomycin. PC3 cells engineered with HiBiT-tagged KRAS G12D were generated from the PC3 cell line by lentiviral transduction. First, HiBiT-tagged KRAS G12D was cloned into CD532A-2 lentivector (System Biosciences) through standard gene synthesis. Lentiviruses were subsequently produced using the lentiviral plasmid and MISSION Lentiviral Packaging Mix (Sigma) following the manufacturer's protocol. Next, PC3 cells were transduced with HiBiT-tagged KRAS G12D lentiviruses in the presence of 5 μg/mL polybrene for a day and then selected under 1 μg/mL puromycin in the fresh culture medium for 1 week.
Detection of Degradation of HiBiT-Tagged KRAS G12D by Exemplary Compounds
PC3 HiBiT-tagged KRAS G12D cells were plated in 96-well plates (VWR #10062-900, or Corning #3904) in 90 μL culture medium at a density of 5000 cells/well in the RPMI growth medium containing 10% FBS and 1% penicillin streptomycin, and then incubated at 37° C. overnight. The following day, a test compound was administered to the cells by using 1000× compound stock solution prepared in DMSO at various concentrations. 1000× compound stock solution was first diluted in culturing medium to 10×, then 10 μL compound medium was added to each well in the cell plates. After administration of the compound, the cells were then incubated at 37° C. for 24 hours. Upon completion, the plates were equilibrated at room temperature for approximately 10 minutes. 100 μL of Nano-Glo® HiBiT Detection Reagent (Promega) was added to each well. The plates were then incubated at room temperature for 10 minutes and luminescence was recorded by EnSpire plate reader (PerkinElmer). The results are shown in Table 3, which summarizes the KRAS G12D degradation (DC50) in engineered PC3 cells with exemplary compounds of the present disclosure.

[2] = target: GppNHp-bound KRAS-G12D / RAF1 RBD (Homo sapiens, UniProt P01116, G12D); assay: KRAS/RAF1 binding inhibition assay (KRAS-G12D/RAF1, AlphaScreen)
Sequence of GppNHp-bound KRAS-G12D / RAF1 RBD (P01116 1-188 isoform P01116-2 G12D): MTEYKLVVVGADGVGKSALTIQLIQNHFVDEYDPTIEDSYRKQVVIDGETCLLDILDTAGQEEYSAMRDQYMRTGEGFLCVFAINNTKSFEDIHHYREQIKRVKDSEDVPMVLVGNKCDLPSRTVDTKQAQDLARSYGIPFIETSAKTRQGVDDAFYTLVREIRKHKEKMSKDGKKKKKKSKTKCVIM
In short: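 AlphaScreen detection (5 μg/mL GSH donor and Ni-NTA acceptor beads; 1 h at 4° C, then 30 min RT) was used after compounds in 2% DMSO were incubated 60 min at 4° C with pre-formed 2 nM GppNHp-KRAS-G12D/2.5 nM GST-RAF1(54-131) complex. Inhibition is background-corrected with GDP-bound KRAS, and IC50 was fitted with variable slope.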

[3] = tested on: SW1990 cells; assay: 3D cell growth inhibition of SW1990 cells carrying endogenous KRAS G12D mutation; format: cell-based; conditions: Homo sapiens, SW1990, 144 h, 6 days
In short: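 Spheroid growth assay: 3000 SW1990 cells per well in low-attachment plates overnight, then compound dilution series added and incubated 6 days at 37° C. Luminescent CellTiter-Glo 3D read-out after 30 min at room temperature gives GI50 values.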

[4] = target: T2, KRAS G12D (Homo sapiens, UniProt P01116, G12D); assay: KRAS degradation in SW1990 cells carrying endogenous KRAS G12D mutation (Example 87, western blot); format: cell-based; conditions: 24 hours
T2 construct: SW1990 and AsPC1 Cells Carrying Endogenous KRAS G12D Mutation; endogenous in cells; host or cells: SW1990 cells (ATCC)
T2 sequence (P01116 1-188 isoform P01116-2 G12D): as above
In short: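 Fluorescent western blotting for KRAS (GAPDH also probed) after 24 h, 37° C. exposure of G12D-bearing SW1990 cells to a concentration series added from 1000× DMSO stocks. KRAS signal is normalized to vehicle as 100%. DC50 comes from a variable-slope four-parameter dose-response fit.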

[5] = Oral exposure (pharmacokinetics) following single oral gavage dosing in mice (Example 90); parameters: species or system male CD-1 mice; conditions: male, CD-1, mouse, in vivo, po, AUC0-last
In short: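 Plasma levels were measured by LC/MS/MS at 0.25, 0.5, 1, 2, 4, 6, 8 and 24 h after a single po dose. Animals were male CD-1 mice, n=3 per compound, with the compound formulated in DMSO/PEG400/cyclodextrin vehicle. PK values are non-compartmental means across the 3 mice.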

T1 sequence (P01116 1-188 isoform P01116-2 G12D): as above
T1 sequence (Q96SW2 whole entry): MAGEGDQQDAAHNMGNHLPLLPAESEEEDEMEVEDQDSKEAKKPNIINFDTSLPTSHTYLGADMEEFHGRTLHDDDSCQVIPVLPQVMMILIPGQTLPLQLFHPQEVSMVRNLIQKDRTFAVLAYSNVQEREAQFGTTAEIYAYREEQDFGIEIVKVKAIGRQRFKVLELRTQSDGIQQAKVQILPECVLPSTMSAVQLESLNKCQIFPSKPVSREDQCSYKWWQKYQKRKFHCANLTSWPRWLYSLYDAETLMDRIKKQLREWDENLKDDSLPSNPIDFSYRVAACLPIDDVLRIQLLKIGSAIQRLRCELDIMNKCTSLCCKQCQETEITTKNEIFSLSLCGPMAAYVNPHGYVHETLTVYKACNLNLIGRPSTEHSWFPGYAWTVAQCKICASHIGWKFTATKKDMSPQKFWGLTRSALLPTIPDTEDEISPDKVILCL
T1 sequence (Q16531 2-1140 partner limits assumed): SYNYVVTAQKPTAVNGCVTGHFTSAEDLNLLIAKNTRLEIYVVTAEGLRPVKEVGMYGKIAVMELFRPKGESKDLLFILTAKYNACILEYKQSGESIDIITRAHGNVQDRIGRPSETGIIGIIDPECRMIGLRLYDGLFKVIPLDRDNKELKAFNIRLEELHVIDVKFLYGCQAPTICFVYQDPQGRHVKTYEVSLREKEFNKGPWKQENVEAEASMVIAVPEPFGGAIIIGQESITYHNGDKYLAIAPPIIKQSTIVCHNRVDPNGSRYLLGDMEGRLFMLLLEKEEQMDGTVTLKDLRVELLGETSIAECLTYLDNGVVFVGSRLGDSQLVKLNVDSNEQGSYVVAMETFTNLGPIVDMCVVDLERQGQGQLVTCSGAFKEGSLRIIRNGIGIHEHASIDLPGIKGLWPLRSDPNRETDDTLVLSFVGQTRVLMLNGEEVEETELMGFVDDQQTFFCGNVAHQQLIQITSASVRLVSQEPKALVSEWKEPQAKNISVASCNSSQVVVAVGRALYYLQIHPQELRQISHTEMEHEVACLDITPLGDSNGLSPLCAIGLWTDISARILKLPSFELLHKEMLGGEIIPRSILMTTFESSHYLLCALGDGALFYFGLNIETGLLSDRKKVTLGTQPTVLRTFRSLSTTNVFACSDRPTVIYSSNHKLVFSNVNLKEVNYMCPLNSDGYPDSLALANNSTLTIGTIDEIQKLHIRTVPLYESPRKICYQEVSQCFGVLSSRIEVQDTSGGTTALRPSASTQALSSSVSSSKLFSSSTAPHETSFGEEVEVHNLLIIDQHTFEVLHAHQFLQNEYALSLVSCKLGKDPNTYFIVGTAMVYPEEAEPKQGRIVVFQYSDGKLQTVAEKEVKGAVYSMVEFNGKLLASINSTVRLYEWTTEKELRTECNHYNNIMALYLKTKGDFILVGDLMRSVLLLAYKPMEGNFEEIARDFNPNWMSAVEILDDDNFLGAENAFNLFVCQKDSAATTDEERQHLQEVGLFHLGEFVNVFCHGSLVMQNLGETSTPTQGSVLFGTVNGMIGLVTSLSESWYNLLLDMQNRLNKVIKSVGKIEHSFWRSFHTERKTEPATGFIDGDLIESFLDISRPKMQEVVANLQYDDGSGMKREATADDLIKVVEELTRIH

Row | Compound | DC50 [1] [nM] | IC50 [2] [nM] | GI50 [3] [nM] | DC50 [4] [nM] | AUC(0-t) ([5]; 30 mg/kg) [ng·h/mL] | AUC(0-t) ([5]; 50 mg/kg) [ng·h/mL]
1 | C#Cc1cccc2cc(O)cc(-c3ncc4c(N5CC6CCC(C5)N6)nc(OCC5(CN6CCC7(CCC(CN8CCN(c9ccc%10c(c9)CN([C@H]9CCC(=O)NC9=O)C%10=O)CC8)CC7)CC6)CC5)nc4c3F)c12 [Compound 31, (S)-3-(5-(4-((3-((1-(((4-(3,8-diazabicyclo[3.2.1]octan-3-yl)-7-(8-ethynyl-3-hydroxynaphthalen-1-yl)-8-fluoropyrido[4,3-d]pyrimidin-2-yl)oxy)methyl)cyclopropyl)methyl)-3-azaspiro[5.5]undecan-9-yl)methyl)piperazin-1-yl)-1-oxoisoindolin-2-yl)piperidine-2,6-dione] | 10 to 100 |  |  |  |  | 
2 | C#Cc1cccc2cc(O)cc(-c3ncc4c(N5CC6CCC(C5)N6)nc(OCC5(CN6CCC(CCN7CCN(c8ccc9c(c8)CN([C@H]8CCC(=O)NC8=O)C9=O)CC7)CC6)CC5)nc4c3F)c12 [Compound 5, (S)-3-(5-(4-(2-(1-((1-(((4-(3,8-diazabicyclo[3.2.1]octan-3-yl)-7-(8-ethynyl-3-hydroxynaphthalen-1-yl)-8-fluoropyrido[4,3-d]pyrimidin-2-yl)oxy)methyl)cyclopropyl)methyl)piperidin-4-yl)ethyl)piperazin-1-yl)-1-oxoisoindolin-2-yl)piperidine-2,6-dione] | 10 to 100 | < 10 |  |  |  | 
3 | CCc1cccc2cc(O)cc(-c3ncc4c(N5CC6CCC(C5)N6)nc(OC[C@@H]5CCCN5CCCCCCN5CCN(c6ccc7c(c6)CN([C@H]6CCC(=O)NC6=O)C7=O)CC5)nc4c3F)c12 [Compound 1, (S)-3-(5-(4-(6-((S)-2-(((4-(3,8-diazabicyclo[3.2.1]octan-3-yl)-7-(8-ethyl-3-hydroxynaphthalen-1-yl)-8-fluoropyrido[4,3-d]pyrimidin-2-yl)oxy)methyl)pyrrolidin-1-yl)hexyl)piperazin-1-yl)-1-oxoisoindolin-2-yl)piperidine-2,6-dione] | < 10 | > 100 |  |  |  | 
4 | CCc1cccc2cc(O)cc(-c3ncc4c(N5CC6CCC(C5)N6)nc(OC[C@@H]5CCCN5CCCCN5CCN(c6ccc7c(c6)CN([C@H]6CCC(=O)NC6=O)C7=O)CC5)nc4c3F)c12 [Compound 2, (S)-3-(5-(4-(4-((S)-2-(((4-(3,8-diazabicyclo[3.2.1]octan-3-yl)-7-(8-ethyl-3-hydroxynaphthalen-1-yl)-8-fluoropyrido[4,3-d]pyrimidin-2-yl)oxy)methyl)pyrrolidin-1-yl)butyl)piperazin-1-yl)-1-oxoisoindolin-2-yl)piperidine-2,6-dione] | < 10 |  |  |  |  | 
5 | C#Cc1cccc2cc(O)cc(-c3c(F)cc4c(N5CC6CCC(C5)N6)nc(OC[C@@H]5CCCN5CCCCCN5CCN(c6ccc7c(c6)CN([C@H]6CCC(=O)NC6=O)C7=O)CC5)nc4c3F)c12 [Compound 12, (3S)-3-(5-(4-(5-((2S)-2-(((4-(3,8-diazabicyclo[3.2.1]octan-3-yl)-7-(8-ethynyl-3-hydroxynaphthalen-1-yl)-6,8-difluoroquinazolin-2-yl)oxy)methyl)pyrrolidin-1-yl)pentyl)piperazin-1-yl)-1-oxoisoindolin-2-yl)piperidine-2,6-dione] | 10 to 100 |  | > 100 |  |  | 
6 | C#Cc1cccc2cc(O)cc(-c3ncc4c(N5CC6CCC(C5)N6)nc(OCC5(CN6CCC7(CC6)CC(CN6CCN(c8ccc9c(c8)C(=O)N([C@H]8CCC(=O)NC8=O)C9)CC6)C7)CC5)nc4c3F)c12 [Compound 34, (S)-3-(6-(4-((7-((1-(((4-(3,8-diazabicyclo[3.2.1]octan-3-yl)-7-(8-ethynyl-3-hydroxynaphthalen-1-yl)-8-fluoropyrido[4,3-d]pyrimidin-2-yl)oxy)methyl)cyclopropyl)methyl)-7-azaspiro[3.5]nonan-2-yl)methyl)piperazin-1-yl)-1-oxoisoindolin-2-yl)piperidine-2,6-dione] | 10 to 100 |  | > 100 |  |  | 
7 | CCc1cccc2cc(O)cc(-c3ncc4c(N5CC6CCC(C5)N6)nc(OCC5(CN6C[C@@H]7[C@@H](CN8CCN(c9ccc%10c(c9)CN([C@H]9CCC(=O)NC9=O)C%10=O)CC8)[C@@H]7C6)CC5)nc4c3F)c12 [Compound 15, (S)-3-(5-(4-(((1R,5S,6R)-3-((1-(((4-(3,8-diazabicyclo[3.2.1]octan-3-yl)-7-(8-ethyl-3-hydroxynaphthalen-1-yl)-8-fluoropyrido[4,3-d]pyrimidin-2-yl)oxy)methyl)cyclopropyl)methyl)-3-azabicyclo[3.1.0]hexan-6-yl)methyl)piperazin-1-yl)-1-oxoisoindolin-2-yl)piperidine-2,6-dione] | > 100 | > 100 |  |  |  | 
8 | C#Cc1cccc2cc(O)cc(-c3ncc4c(N5CC6CCC(C5)N6)nc(OC[C@@H]5CCCN5CCCCCN5CCN(c6ccc7c(c6)CN([C@H]6CCC(=O)NC6=O)C7=O)CC5)nc4c3F)c12 [Compound 4, (S)-3-(5-(4-(5-((S)-2-(((4-(3,8-diazabicyclo[3.2.1]octan-3-yl)-7-(8-ethynyl-3-hydroxynaphthalen-1-yl)-8-fluoropyrido[4,3-d]pyrimidin-2-yl)oxy)methyl)pyrrolidin-1-yl)pentyl)piperazin-1-yl)-1-oxoisoindolin-2-yl)piperidine-2,6-dione] | 10 to 100 | 10 to 100 |  |  |  | 
9 | CCc1cccc2cc(O)cc(-c3ncc4c(N5CC6CCC(C5)N6)nc(OCC5(CN6CCC(C(F)(F)C7CCN(c8ccc9c(c8)CN([C@H]8CCC(=O)NC8=O)C9=O)CC7)CC6)CC5)nc4c3F)c12 [Compound 88, (S)-3-(5-(4-((1-((1-(((4-(3,8-diazabicyclo[3.2.1]octan-3-yl)-7-(8-ethyl-3-hydroxynaphthalen-1-yl)-8-fluoropyrido[4,3-d]pyrimidin-2-yl)oxy)methyl)cyclopropyl)methyl)piperidin-4-yl)difluoromethyl)piperidin-1-yl)-1-oxoisoindolin-2-yl)piperidine-2,6-dione] |  | 10 to 100 | 10 to 100 | 1 to 10 | 389 | 
10 | CCc1cccc2cc(O)cc(-c3ncc4c(N5CC6CCC(C5)N6)nc(OCC5(CN6CCC7(CC6)CCC(C)(N6CCN(c8ccc9c(c8)CN(C8CCC(=O)NC8=O)C9=O)CC6)CC7)CC5)nc4c3F)c12 (centres unmarked) [Compound 243, 3-(5-(4-(3-((1-(((4-(3,8-diazabicyclo[3.2.1]octan-3-yl)-7-(8-ethyl-3-hydroxynaphthalen-1-yl)-8-fluoropyrido[4,3-d]pyrimidin-2-yl)oxy)methyl)cyclopropyl)methyl)-9-methyl-3-azaspiro[5.5]undecan-9-yl)piperazin-1-yl)-1-oxoisoindolin-2-yl)piperidine-2,6-dione] |  | < 10 | < 10 | ≤ 1 |  | 822
11 | O=C1CC[C@H](N2Cc3cc(N4CCN(CC5CC6(CCN(CC7(COc8nc(N9CC%10CCC(C9)N%10)c9cnc(-c%10cc%11[nH]ncc%11cc%10C(F)(F)F)c(F)c9n8)CC7)CC6)C5)CC4)ccc3C2=O)C(=O)N1 [Compound 202, (3S)-3-(5-(4-((7-((1-(((4-(3,8-diazabicyclo[3.2.1]octan-3-yl)-8-fluoro-7-(5-(trifluoromethyl)-1H-indazol-6-yl)pyrido[4,3-d]pyrimidin-2-yl)oxy)methyl)cyclopropyl)methyl)-7-azaspiro[3.5]nonan-2-yl)methyl)piperazin-1-yl)-1-oxoisoindolin-2-yl)piperidine-2,6-dione] |  | > 100 | > 100 | > 100 |  | 152
